{
  "source": "ChEMBL document CHEMBL1145280",
  "about": "“Control of hepatitis C: a medicinal chemistry perspective” (J Med Chem, 2005)",
  "key": {"[1]": {"target": "T1, Hepatitis C virus NS4A protein (Hepatitis C virus, UniProt D2K2A8)", "T1 sequence (D2K2A8 whole entry)": "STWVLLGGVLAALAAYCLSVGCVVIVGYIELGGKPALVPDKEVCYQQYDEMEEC", "assay": "Inhibitory concentration against hepatitis C NS4A protease", "design": "species or system Hepacivirus hominis"}, "NS3 (Hepatitis C virus)": {"target": "NS3 (Hepatitis C virus) (UniProt A3EZJ3)", "sequence (A3EZJ3 as listed by the source)": "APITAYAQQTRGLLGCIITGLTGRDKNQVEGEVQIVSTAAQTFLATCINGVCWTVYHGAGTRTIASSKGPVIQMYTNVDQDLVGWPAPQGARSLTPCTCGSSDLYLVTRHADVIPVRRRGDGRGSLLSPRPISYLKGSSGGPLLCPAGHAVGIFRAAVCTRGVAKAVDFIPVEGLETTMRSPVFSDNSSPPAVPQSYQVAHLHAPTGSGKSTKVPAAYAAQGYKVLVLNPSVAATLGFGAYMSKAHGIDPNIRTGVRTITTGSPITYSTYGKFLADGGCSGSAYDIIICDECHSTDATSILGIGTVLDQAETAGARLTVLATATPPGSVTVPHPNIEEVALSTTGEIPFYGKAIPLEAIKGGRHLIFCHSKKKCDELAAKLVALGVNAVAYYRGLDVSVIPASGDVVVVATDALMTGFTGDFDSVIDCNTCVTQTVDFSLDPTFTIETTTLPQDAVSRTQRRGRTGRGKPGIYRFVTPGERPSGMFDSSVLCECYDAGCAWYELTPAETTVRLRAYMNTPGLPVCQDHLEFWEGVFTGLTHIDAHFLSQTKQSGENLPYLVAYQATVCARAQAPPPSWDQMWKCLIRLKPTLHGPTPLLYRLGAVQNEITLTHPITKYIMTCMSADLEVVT", "assay": "Percent inhibition against hepatitis C virus helicase at 25 ug/mL; Range 6-13", "conditions": "Hepacivirus hominis"}, "NS3 [2]": {"target": "T2, NS3 (Hepatitis C virus, UniProt A3EZJ3)", "T2 sequence (A3EZJ3 whole entry)": "as the sequence (A3EZJ3 as listed by the source) above", "assay": "Inhibitory concentration against hepatitis C virus helicase; range 0.6-0.7", "design": "species or system Hepacivirus hominis"}, "[3]": {"target": "T1, Hepatitis C virus NS4A protein", "assay": "Inhibitory concentration against hepatitis C virus NS4A active site", "design": "species or system Hepacivirus hominis"}, "Genome polyprotein": {"target": "Genome polyprotein (Hepatitis C virus genotype 1a (isolate 1) (HCV), UniProt P26664)", "sequence (P26664 810-1026 limits assumed)": "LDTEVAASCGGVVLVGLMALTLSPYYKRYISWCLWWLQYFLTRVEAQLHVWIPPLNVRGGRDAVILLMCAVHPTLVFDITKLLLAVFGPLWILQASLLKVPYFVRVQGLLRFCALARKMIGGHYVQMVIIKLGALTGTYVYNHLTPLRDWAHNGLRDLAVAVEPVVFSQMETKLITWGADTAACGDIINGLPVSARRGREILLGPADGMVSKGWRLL", "sequence (P26664 1027-1657 limits assumed)": "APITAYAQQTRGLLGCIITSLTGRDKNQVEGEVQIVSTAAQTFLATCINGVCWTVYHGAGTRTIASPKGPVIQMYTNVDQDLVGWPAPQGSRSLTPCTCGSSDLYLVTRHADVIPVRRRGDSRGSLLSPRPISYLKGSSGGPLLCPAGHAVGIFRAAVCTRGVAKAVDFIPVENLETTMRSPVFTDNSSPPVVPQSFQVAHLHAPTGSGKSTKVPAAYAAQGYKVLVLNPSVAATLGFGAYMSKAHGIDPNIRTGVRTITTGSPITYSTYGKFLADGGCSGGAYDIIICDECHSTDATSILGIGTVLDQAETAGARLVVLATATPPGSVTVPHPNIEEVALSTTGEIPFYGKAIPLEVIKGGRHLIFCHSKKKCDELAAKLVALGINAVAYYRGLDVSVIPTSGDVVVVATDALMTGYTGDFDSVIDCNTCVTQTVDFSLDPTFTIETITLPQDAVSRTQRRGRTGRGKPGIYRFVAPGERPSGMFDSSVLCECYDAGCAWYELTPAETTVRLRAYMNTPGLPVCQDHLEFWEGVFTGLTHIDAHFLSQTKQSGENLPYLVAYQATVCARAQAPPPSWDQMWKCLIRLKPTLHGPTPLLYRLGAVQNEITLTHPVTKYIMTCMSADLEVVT", "assay": "Inhibitory concentration against hepatitis C virus NS2/3 protease", "design": "species or system Hepacivirus hominis"}, "NS3 [4]": {"target": "T2, NS3", "assay": "Inhibitory concentration against hepatitis C virus NS4A binding region of NS3 protease", "design": "species or system Hepacivirus hominis"}},
  "note": "Positions of bridges follow the written chain, without caps; N, C: chain ends. Non-standard residues stand in square brackets, D forms with d. Residues, ends and D or L forms follow the SMILES beside them. Chains are numbered I, II in the order given. Ahx = NCCCCCC(=O)O",
  "data": [
    {"compound": "H-CVVIVGRIVLSGK-OH", "values": [
      {"measurement": "IC50", "setting": "[1]", "value": 200, "unit": "nM"}
    ]},
    {"compound": "O=C(CCCCC(=O)Nc1nc2ccccc2[nH]1)Nc1nc2ccccc2[nH]1", "values": [
      {"measurement": "inhibition", "setting": "NS3 (Hepatitis C virus)", "value": 13, "unit": "%"}
    ]},
    {"compound": "CN1CCN(CCCN2c3ccccc3Sc3ccc(C(F)(F)F)cc32)CC1", "note": "[TRIFLUOPERAZINE]", "values": [
      {"measurement": "IC50", "setting": "NS3 [2]", "value": 700, "unit": "nM"}
    ]},
    {"compound": "H-SLVIRGVIV-OH", "values": [
      {"measurement": "IC50", "setting": "[3]", "value": 600, "unit": "nM"}
    ]},
    {"compound": "Ac-RGGSVVIVGRIILSGRK-OH", "values": [
      {"measurement": "IC50", "setting": "Genome polyprotein", "value": 3400, "unit": "nM"}
    ]},
    {"compound": "H-KGSVVIVGRIILSGRK-OH", "values": [
      {"measurement": "IC50", "setting": "Genome polyprotein", "value": 5700, "unit": "nM"}
    ]},
    {"compound": "CC[C@H](C)[C@H](NC(=O)[C@H](CCCN=C(N)N)NC(=O)CNC(=O)[C@@H](NC(=O)[C@@H](NC(=O)[C@@H](NC(=O)[C@@H](NC(=O)[C@@H](N)CS)C(C)C)C(C)C)[C@@H](C)CC)C(C)C)C(=O)N[C@H](C(=O)N[C@@H](CC(C)C)C(=O)N[C@@H](CO)C(=O)NCC(=O)N[C@@H](CCCCN)C(=O)NCCCC[C@H](NC(=O)CCCCCNC(=O)[C@H](CS)NC(=O)[C@H](CS)NC(=O)[C@@H](NC(=O)[C@@H](NC(=O)[C@H](CC(=O)O)NC(=O)[C@@H](N)CCC(=O)O)C(C)C)C(C)C)C(=O)O)C(C)C", "note": "(I: H-CVVIVGRIVLSGK / II: H-EDVVCC[Ahx]K-OH; amide I:C-II:8)", "values": [
      {"measurement": "IC50", "setting": "NS3 [4]", "value": 3000, "unit": "nM"}
    ]},
    {"compound": "H-KGSLVIRGVIVVCK-OH", "values": [
      {"measurement": "IC50", "setting": "[3]", "value": 200, "unit": "nM"}
    ]},
    {"compound": "CC[C@H](C)[C@H](NC(=O)CNC(=O)[C@H](CCCN=C(N)N)NC(=O)[C@@H](NC(=O)[C@@H](NC(=O)[C@H](CC(C)C)NC(=O)[C@H](CO)NC(=O)CNC(=O)[C@H](CCCCN)NC(=O)CCCCCNC(=O)[C@H](CS)NC(=O)[C@H](CS)NC(=O)[C@@H](NC(=O)[C@@H](NC(=O)[C@H](CCC(=O)O)NC(=O)[C@@H](N)CC(=O)O)C(C)C)C(C)C)C(C)C)[C@@H](C)CC)C(=O)N[C@H](C(=O)N[C@H](C(=O)N[C@@H](CS)C(=O)N[C@@H](CCCCN)C(=O)O)C(C)C)C(C)C", "note": "(H-DEVVCC[Ahx]KGSLVIRGIVVCK-OH)", "values": [
      {"measurement": "IC50", "setting": "NS3 [4]", "value": 200, "unit": "nM"}
    ]},
    {"compound": "CC[C@H](C)[C@@H](NC(=O)[C@H](NC(=O)[C@@H](CC(C)C)NC(=O)[C@@H](CO)NC(=O)CNC(=O)[C@H](CCCCN)NC(=O)CCCCCNC(=O)CCCCCNC(=O)[C@H](CS)NC(=O)[C@H](CS)NC(=O)[C@@H](NC(=O)[C@@H](NC(=O)[C@H](CC(=O)O)NC(=O)[C@@H](N)CCC(=O)O)C(C)C)C(C)C)C(C)C)C(=O)N[C@H](CCCN=C(N)N)C(=O)NCC(=O)N[C@@H](C(=O)N[C@@H](C(=O)N[C@@H](C(=O)N[C@@H](C(=O)N[C@H](CS)C(=O)O)C(C)C)C(C)C)[C@@H](C)CC)C(C)C", "values": [
      {"measurement": "IC50", "setting": "NS3 [4]", "value": 200, "unit": "nM"}
    ]}
  ]
}
